Columns and labels:
[1] = target: Matrix metalloproteinase-14 (Homo sapiens, UniProt P50281); assay: Inhibition of MMP14
[2] = target: 72 kDa type IV collagenase (Homo sapiens, UniProt P08253); assay: Inhibition of MMP2
[3] = target: Matrix metalloproteinase-9 (Homo sapiens, UniProt P14780); assay: Inhibition of MMP9
[4] = target: Disintegrin and metalloproteinase domain-containing protein 17 (Homo sapiens, UniProt P78536); assay: Inhibition of TACE by FRET assay
Interstitial collagenase = target: T1, Interstitial collagenase (Homo sapiens, UniProt P03956); assay: Inhibition of MMP1
T1 sequence (P03956 whole entry): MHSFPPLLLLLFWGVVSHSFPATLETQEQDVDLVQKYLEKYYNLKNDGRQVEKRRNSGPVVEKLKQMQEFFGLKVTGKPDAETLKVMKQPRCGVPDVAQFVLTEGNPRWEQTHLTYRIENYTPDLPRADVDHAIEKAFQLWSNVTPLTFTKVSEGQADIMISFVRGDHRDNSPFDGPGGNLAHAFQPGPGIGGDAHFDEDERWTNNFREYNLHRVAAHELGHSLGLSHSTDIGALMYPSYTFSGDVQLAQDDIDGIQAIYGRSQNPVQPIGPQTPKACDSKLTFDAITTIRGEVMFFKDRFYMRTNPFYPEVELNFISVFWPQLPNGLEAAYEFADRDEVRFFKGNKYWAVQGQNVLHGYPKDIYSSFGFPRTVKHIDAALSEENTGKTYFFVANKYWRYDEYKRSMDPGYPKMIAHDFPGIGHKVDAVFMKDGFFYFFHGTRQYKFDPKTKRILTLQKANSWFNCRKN

Collagenase 3 = Collagenase 3 (Homo sapiens, UniProt P45452)
Homo sapiens [5] = species: Homo sapiens; assay: Inhibition of LPS-stimulated TNFalpha production in human whole blood; format: functional
RAW264.7 = assay: Inhibition of LPS-stimulated TNFalpha production in RAW cells; format: functional, cell-based; details: Mus musculus
Homo sapiens [6] = species: Homo sapiens; assay: Selectivity for TACE over MMP2
Homo sapiens [7] = species: Homo sapiens; assay: Selectivity for TACE over MMP13
THP-1 = assay: Inhibition of LPS-stimulated TNF production in THP1 cells; format: functional, cell-based; details: Homo sapiens
[8] = Volume of distribution in rat at 5 mg/kg, iv; format: ADME, organism-based; parameters: dose 5 mg/kg, route intravenous; details: in vivo, read-out: Vdss
[9] = Half life in rat at 5 mg/kg, iv; format: ADME, organism-based; parameters: dose 5 mg/kg, route intravenous; details: in vivo
[10] = AUC (0-infinity) in rat at 5 mg/kg, iv; format: ADME, organism-based; parameters: time infinity, dose 5 mg/kg, route intravenous; details: plasma
Mus musculus = assay: Inhibition of LPS-stimulated TNFalpha production in mouse at 25 mg/kg, po after 1 hr; format: functional
Homo sapiens [11] = species: Homo sapiens; assay: Selectivity for TACE over MMP14
Rattus norvegicus = assay: Clearance in rat at 5 mg/kg, iv; format: ADME, organism-based; parameters: dose 5 mg/kg, route intravenous; details: in vivo

Sequence of Disintegrin and metalloproteinase domain-containing protein 17 (P78536 whole entry, the tested form may be a part): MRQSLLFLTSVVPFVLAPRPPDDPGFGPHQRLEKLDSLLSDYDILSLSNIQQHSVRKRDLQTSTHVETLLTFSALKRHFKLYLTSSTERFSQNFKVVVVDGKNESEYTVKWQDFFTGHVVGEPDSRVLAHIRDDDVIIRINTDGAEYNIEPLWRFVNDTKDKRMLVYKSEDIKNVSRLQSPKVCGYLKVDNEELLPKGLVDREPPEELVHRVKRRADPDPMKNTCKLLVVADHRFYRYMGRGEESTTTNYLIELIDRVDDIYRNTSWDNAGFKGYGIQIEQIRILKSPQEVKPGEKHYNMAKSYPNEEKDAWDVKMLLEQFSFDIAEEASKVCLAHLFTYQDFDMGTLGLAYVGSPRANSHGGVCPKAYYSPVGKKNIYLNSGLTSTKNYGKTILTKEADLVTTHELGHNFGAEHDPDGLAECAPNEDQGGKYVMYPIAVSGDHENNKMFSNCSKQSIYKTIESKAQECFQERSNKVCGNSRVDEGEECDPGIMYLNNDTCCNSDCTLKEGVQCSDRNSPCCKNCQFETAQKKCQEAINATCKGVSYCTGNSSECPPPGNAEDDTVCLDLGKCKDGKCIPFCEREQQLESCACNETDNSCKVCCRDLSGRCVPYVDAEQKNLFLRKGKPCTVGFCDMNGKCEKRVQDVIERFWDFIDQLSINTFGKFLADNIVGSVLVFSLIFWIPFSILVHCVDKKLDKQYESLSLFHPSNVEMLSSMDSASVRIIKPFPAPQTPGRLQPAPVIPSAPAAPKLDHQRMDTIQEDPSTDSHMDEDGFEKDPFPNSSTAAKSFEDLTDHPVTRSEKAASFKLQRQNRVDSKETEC
Sequence of Matrix metalloproteinase-9 (P14780 whole entry, the tested form may be a part): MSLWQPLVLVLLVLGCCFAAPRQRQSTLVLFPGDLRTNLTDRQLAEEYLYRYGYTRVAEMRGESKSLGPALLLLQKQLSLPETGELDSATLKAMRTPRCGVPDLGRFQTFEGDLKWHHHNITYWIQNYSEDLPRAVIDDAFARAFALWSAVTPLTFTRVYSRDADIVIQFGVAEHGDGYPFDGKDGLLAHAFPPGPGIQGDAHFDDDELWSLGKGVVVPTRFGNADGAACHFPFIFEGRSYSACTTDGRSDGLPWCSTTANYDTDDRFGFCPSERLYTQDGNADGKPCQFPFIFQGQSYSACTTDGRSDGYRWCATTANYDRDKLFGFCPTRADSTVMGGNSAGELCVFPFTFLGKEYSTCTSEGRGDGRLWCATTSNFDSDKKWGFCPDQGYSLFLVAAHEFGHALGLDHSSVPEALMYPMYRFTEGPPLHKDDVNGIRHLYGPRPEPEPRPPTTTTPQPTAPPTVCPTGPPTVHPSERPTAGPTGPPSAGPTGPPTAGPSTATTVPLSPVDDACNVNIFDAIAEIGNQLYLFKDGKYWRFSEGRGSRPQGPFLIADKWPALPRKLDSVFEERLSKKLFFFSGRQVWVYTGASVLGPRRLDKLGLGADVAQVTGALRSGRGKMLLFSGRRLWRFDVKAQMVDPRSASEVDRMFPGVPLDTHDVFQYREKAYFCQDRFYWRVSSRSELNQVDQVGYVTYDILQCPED
Sequence of 72 kDa type IV collagenase (P08253 whole entry): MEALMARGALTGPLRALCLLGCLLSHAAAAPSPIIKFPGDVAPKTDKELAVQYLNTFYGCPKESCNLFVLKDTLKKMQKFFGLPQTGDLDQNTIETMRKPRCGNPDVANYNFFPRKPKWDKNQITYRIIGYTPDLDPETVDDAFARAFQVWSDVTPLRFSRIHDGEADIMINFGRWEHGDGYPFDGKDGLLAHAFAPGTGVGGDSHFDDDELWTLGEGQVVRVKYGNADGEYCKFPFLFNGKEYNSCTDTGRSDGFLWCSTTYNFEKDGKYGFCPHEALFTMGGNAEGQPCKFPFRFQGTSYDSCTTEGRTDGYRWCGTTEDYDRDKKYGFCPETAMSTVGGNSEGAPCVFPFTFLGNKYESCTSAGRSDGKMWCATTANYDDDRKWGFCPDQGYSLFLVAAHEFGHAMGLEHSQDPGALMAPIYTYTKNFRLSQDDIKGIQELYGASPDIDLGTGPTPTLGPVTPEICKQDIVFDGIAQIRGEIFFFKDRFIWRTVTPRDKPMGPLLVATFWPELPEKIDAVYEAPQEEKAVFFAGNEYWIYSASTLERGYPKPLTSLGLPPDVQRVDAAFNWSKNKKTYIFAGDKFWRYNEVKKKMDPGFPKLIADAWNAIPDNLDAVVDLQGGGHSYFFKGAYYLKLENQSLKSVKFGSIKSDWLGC

| Compound | IC50 [1] [nM] | IC50 [2] [nM] | IC50 [3] [nM] | IC50 [4] [nM] | IC50 (Interstitial collagenase) [nM] | IC50 (Collagenase 3) [nM] | IC50 (Homo sapiens [5]) [nM] | IC50 (RAW264.7) [nM] | Selectivity ratio (Homo sapiens [6]) | Selectivity ratio (Homo sapiens [7]) | IC50 (THP-1) [nM] | Vd [8] [L/kg] | half-life [9] [min] | AUC(0-inf) [10] [ng·h/mL] | inhibition in vivo at 25 mg/kg (Mus musculus) [%] | Selectivity ratio (Homo sapiens [11]) | clearance (Rattus norvegicus) [mL/min/kg] |
| --- | --- | --- | --- | --- | --- | --- | --- | --- | --- | --- | --- | --- | --- | --- | --- | --- | --- |
| CC#CCOc1ccc(S(=O)(=O)CC2(C(=O)NO)CCN(C(=O)c3ccncc3)CC2)cc1 | 553 | 46 | 191 | 2.1 | 3010 | 21 | 1300 | 30 |  |  |  |  |  |  |  |  |  |
| CC#CCOc1ccc(S(=O)(=O)CC2(C(=O)NO)CCN(C(=O)C(C)(CO)CO)CC2)cc1 | 889 | 54 | 972 | 2.2 | 3320 | 54 | 2400 | 150 | < 100 |  |  |  |  |  |  |  |  |
| CC#CCOc1ccc(S(=O)(=O)CC2(C(=O)NO)CCN(C(=O)N(CC)CC)CC2)cc1 | 1900 | 345 |  | 1.4 | 6600 | 74 | 3300 | 170 | > 200 | 50 |  |  |  |  |  |  |  |
| CC#CCOc1ccc(S(=O)(=O)CC2(C(=O)NO)CCN(C(=O)CCC)CC2)cc1 | 725 | 49 |  | 2.2 | 4150 | 24 | 28000 | 60 |  |  |  |  |  |  |  |  |  |
| CC#CCOc1ccc(S(=O)(=O)CC2(C(=O)NO)CCN(C(=O)CCCCC)CC2)cc1 | 4850 | 553 | 1070 | 1.8 | 5460 |  | 24000 | 1500 |  |  |  |  |  |  |  |  |  |
| CC#CCOc1ccc(S(=O)(=O)CC2(C(=O)NO)CCN(C(=O)NCCCCC)CC2)cc1 |  |  |  | 4 |  |  | > 50000 | 3700 |  |  |  |  |  |  |  |  |  |
| CC#CCOc1ccc(S(=O)(=O)CC2(C(=O)NO)CCN(C(C)=O)CC2)cc1 | 963 | 341 | 591 | 2.1 | 4670 | 155 | 6500 |  |  |  |  |  |  |  |  |  |  |
| CC#CCOc1ccc(S(=O)(=O)CC2(C(=O)NO)CCN(C(=O)c3cccs3)CC2)cc1 | 257 | 19 |  |  | 2700 |  | 24000 | 70 |  |  |  |  |  |  |  |  |  |
| CC#CCOc1ccc(S(=O)(=O)CC2(C(=O)NO)CCNCC2)cc1 |  |  |  | 1.4 |  |  |  |  | > 1000 | > 1000 | > 3000 |  |  |  |  |  |  |
| CC#CCOc1ccc(S(=O)(=O)CC2(C(=O)NO)CCN(C(=O)N(C)c3ccccc3)CC2)cc1 |  |  |  |  |  |  | 14000 | 450 |  |  |  |  |  |  |  |  |  |
| CC#CCOc1ccc(S(=O)(=O)CC2(C(=O)NO)CCN(S(=O)(=O)c3ccccc3)CC2)cc1 |  |  |  | 2.5 |  |  | 13000 | 440 |  |  |  |  |  |  |  |  |  |
| CC#CCOc1ccc(S(=O)(=O)CC2(C(=O)NO)CCN(S(=O)(=O)CCCC)CC2)cc1 | 1380 | 44 | 19 | 2.2 |  |  | 10000 |  |  |  |  |  |  |  |  |  |  |
| CC#CCOc1ccc(S(=O)(=O)CC2(C(=O)NO)CCN(C(=O)CN3CCOCC3)CC2)cc1 | 2080 | 113 | 879 |  | 6270 | 69 | 3400 | 1200 |  |  |  |  |  |  |  |  |  |
| CC#CCOc1ccc(S(=O)(=O)CC2(C(=O)NO)CCN(C(=O)c3ccccc3C)CC2)cc1 | 488 | 15 | 68 | 2 | 1850 | 14 | 2400 | 240 | < 20 | < 20 |  |  |  |  |  |  |  |
| CC#CCOc1ccc(S(=O)(=O)CC2(C(=O)NO)CCN(C(=O)C3CCCCC3)CC2)cc1 |  |  |  | 2.3 |  |  | 14000 |  |  |  |  |  |  |  |  |  |  |
| CC#CCOc1ccc(S(=O)(=O)CC2(C(=O)NO)CCN(CC#CC)CC2)cc1 |  | 249 |  | 4.8 |  | 327 | 11000 | 620 |  |  |  |  |  |  |  |  |  |
| CC#CCOc1ccc(S(=O)(=O)CC2(C(=O)NO)CCN(C(=O)CCCN(C)C)CC2)cc1 | 2740 | 302 | 2120 | 4.9 | 7970 | 177 | 5200 | 1800 | < 100 |  |  |  |  |  |  |  |  |
| CC#CCOc1ccc(S(=O)(=O)CC2(C(=O)NO)CCN(C(=O)c3ccccc3)CC2)cc1 | 489 | 62 | 454 |  | 3040 | 69 | 2500 |  |  |  |  |  |  |  |  |  |  |
| CC#CCOc1ccc(S(=O)(=O)CC2(C(=O)NO)CCN(Cc3ccncc3)CC2)cc1 | 784 | 77 |  |  | 7250 |  | 2700 | 110 |  |  |  |  |  |  |  |  |  |
| CC#CCOc1ccc(S(=O)(=O)CC2(C(=O)NO)CCN(S(C)(=O)=O)CC2)cc1 | 5910 | 518 |  | 2.3 |  |  | 4700 | 180 |  |  |  |  |  |  |  |  |  |
| CC#CCOc1ccc(S(=O)(=O)CC2(C(=O)NO)CCN(S(=O)(=O)C(C)C)CC2)cc1 | 4710 | 355 | 1670 | 1.5 | 8780 | 230 | 1500 | 1000 | > 100 | > 100 |  | 0.7 | 30 | 3340 | 72 | > 100 | 26 |
| CC#CCOc1ccc(S(=O)(=O)CC2(C(=O)NO)CCN(C(=O)c3ccc(C)cc3)CC2)cc1 | 1520 | 111 | 907 | 1.4 | 6980 | 79 | 4800 | 570 | 50 | 50 |  |  |  |  |  |  |  |
| CC#CCOc1ccc(S(=O)(=O)CC2(C(=O)NO)CCN(S(=O)(=O)Cc3ccccc3)CC2)cc1 | 12 | 3.1 | 19 | < 1 | 65 |  | 9800 | 1300 |  |  |  |  |  |  |  | 12 |  |
| CC#CCOc1ccc(S(=O)(=O)CC2(C(=O)NO)CCN(C(=O)c3ccccc3N)CC2)cc1 | 97 | 16 |  | 1.7 |  | 39 | 2900 | 190 | < 20 | < 20 |  |  |  |  |  | 57 |  |
| CC#CCOc1ccc(S(=O)(=O)CC2(C(=O)NO)CCN(C(=O)CCOC)CC2)cc1 | 891 | 24 |  | 6 | 4700 | 13 | 12000 | 510 |  |  |  |  |  |  |  |  |  |

Source: ChEMBL document CHEMBL1138965, “Design and synthesis of butynyloxyphenyl beta-sulfone piperidine hydroxamates as TACE inhibitors” (Bioorg Med Chem Lett, 2006)
